From ChEMBL document CHEMBL1201862, “PubChem BioAssay data set” (2004) come the findings set out here.

Test systems include NCI-H460; MDA-MB-435; OVCAR-8; SW-620; SF-268; RPMI-8226; NCI-H23; KM12; SK-MEL-5; K562; HL-60; OVCAR-4; EKVX; DU-145; RXF 393; HCT-116; CAKI-1; SK-MEL-28; OVCAR-5; CCRF-CEM.
Common to all, as to assay: DTP human tumour cell line panel, 48 h

The structures appear in SMILES notation.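 Exposure lasted 48 hours, with cells grown in 96-well plates and compounds tested at five concentrations. GI50 marks 50% less growth.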 Calls of active or inactive are those of the source. No stated cut-off is given here; in the data, active = GI50 up to about 1.1 µM and inactive = higher.

One may read the GI50 as the concentration that inhibits growth by half. For `COc1cc(C=O)cc(/C=N/c2ccc(Br)cc2)c1O`, the GI50 was 2.71 µM (inactive) in the experiment with NCI-H460; 1.05 µM (active) in the experiment with MDA-MB-435; 2.86 µM (inactive) in the experiment on OVCAR-8; 1.25 µM (inactive) in the experiment with SW-620; 1.66 µM (inactive) with SF-268; 3.33 µM (inactive) in the experiment with RPMI-8226. Moreover, the GI50 in the experiment on NCI-H23 was 17.7 µM (inactive); with KM12 it was 10.2 µM (inactive); in the experiment with SK-MEL-5, 2.19 µM (inactive); in the experiment with K562, 0.555 µM (active); in the experiment on HL-60 it was 2.11 µM (inactive); in the experiment on OVCAR-4 it was 22.5 µM (inactive). For the same compound, the GI50 in the experiment on EKVX was 13.6 µM (inactive); with DU-145 it was 11.3 µM (inactive); with RXF 393, 4.43 µM (inactive); in the experiment with HCT-116 it was 6.79 µM (inactive); with CAKI-1, 2.93 µM (inactive); with SK-MEL-28 it was 6.71 µM (inactive). Besides, the GI50 was 24.5 µM (inactive) in the experiment on OVCAR-5 and 7.59 µM (inactive) in the experiment with CCRF-CEM.
On to `N=C(N)SCCc1ccncc1`, for which the GI50 with NCI-H460, in the experiment with MDA-MB-435, with OVCAR-8, in the experiment on SW-620, in the experiment with SF-268 and with RPMI-8226 was > 100 µM (inactive) throughout. Besides, the GI50 with NCI-H23, in the experiment with KM12, in the experiment on SK-MEL-5, in the experiment with K562, in the experiment with HL-60 and in the experiment with OVCAR-4 was > 100 µM (inactive) each time. Also, the GI50 in the experiment with EKVX, in the experiment with DU-145, in the experiment on RXF 393, with HCT-116, in the experiment with CAKI-1 and in the experiment with SK-MEL-28 was > 100 µM (inactive) throughout. In addition, the GI50 is > 100 µM (inactive) with OVCAR-5 and 65.8 µM (inactive) with CCRF-CEM.
In the case of `N=C1/C(=C/c2ccc(F)cc2)C(=O)N=C2SC=NN12`, the GI50 in the experiment on NCI-H460 was > 100 µM (inactive); with MDA-MB-435, 83.4 µM (inactive); with OVCAR-8 it was > 100 µM (inactive); in the experiment on SW-620 it was > 100 µM (inactive); in the experiment on SF-268 it was > 100 µM (inactive); in the experiment with RPMI-8226 it was > 100 µM (inactive). Moreover, the GI50 in the experiment on NCI-H23 was > 100 µM (inactive); in the experiment with KM12, > 100 µM (inactive); with SK-MEL-5, 62.5 µM (inactive); with K562, > 100 µM (inactive); in the experiment on HL-60 it was 80.5 µM (inactive); in the experiment with OVCAR-4, > 100 µM (inactive). The GI50 was > 100 µM (inactive) with EKVX; > 100 µM (inactive) in the experiment on DU-145; 31.5 µM (inactive) with RXF 393; > 100 µM (inactive) in the experiment with HCT-116; > 100 µM (inactive) in the experiment on CAKI-1; > 100 µM (inactive) in the experiment on SK-MEL-28. In addition, the GI50 in the experiment with OVCAR-5 and in the experiment with CCRF-CEM was > 100 µM (inactive) each time.
Regarding `Cc1ccc(P(c2ccc(C)cc2)c2ccc(C)cc2)cc1`, the GI50 was 12.9 µM (inactive) in the experiment on NCI-H460; 19.1 µM (inactive) in the experiment on MDA-MB-435; 18 µM (inactive) in the experiment with OVCAR-8; 26.2 µM (inactive) in the experiment with SW-620; 24.3 µM (inactive) in the experiment with SF-268; 6.05 µM (inactive) in the experiment on RPMI-8226. The GI50 was 27.9 µM (inactive) in the experiment on NCI-H23; 15.8 µM (inactive) with KM12; 16.6 µM (inactive) in the experiment on SK-MEL-5; 4.83 µM (inactive) in the experiment on K562; 28.8 µM (inactive) in the experiment with HL-60; 19.8 µM (inactive) with OVCAR-4. For the same compound, the GI50 was 28.3 µM (inactive) with EKVX; 16.5 µM (inactive) in the experiment with DU-145; 15.5 µM (inactive) with RXF 393; 12.4 µM (inactive) with HCT-116; 23.2 µM (inactive) in the experiment with CAKI-1; 24.5 µM (inactive) with SK-MEL-28. Besides, the GI50 in the experiment with OVCAR-5 was 21.3 µM (inactive); in the experiment on CCRF-CEM it was 20.4 µM (inactive).
Turning to `Cc1ccc(C(=O)N/N=C2/C(=O)c3c4ccccc4cc4cccc2c34)cc1`, the GI50 with NCI-H460 was 15 µM (inactive); in the experiment with MDA-MB-435, 23.9 µM (inactive); with OVCAR-8 it was 22.4 µM (inactive); in the experiment with SW-620 it was 8.71 µM (inactive); in the experiment on SF-268 it was 18.7 µM (inactive); in the experiment with RPMI-8226, 22 µM (inactive). Moreover, the GI50 with NCI-H23 is 24.6 µM (inactive); with KM12, 3.89 µM (inactive); in the experiment on SK-MEL-5, 27.5 µM (inactive); in the experiment on K562 it was > 21.1 µM (inactive); with HL-60, 10.2 µM (inactive); in the experiment with OVCAR-4, 18.2 µM (inactive). The GI50 is 40.2 µM (inactive) in the experiment on EKVX; 3.44 µM (inactive) with DU-145; 12.6 µM (inactive) in the experiment on RXF 393; 4.78 µM (inactive) in the experiment on HCT-116; 25.4 µM (inactive) in the experiment on CAKI-1; 17.7 µM (inactive) with SK-MEL-28. Also, the GI50 in the experiment with OVCAR-5 is > 70 µM (inactive); in the experiment with CCRF-CEM, 3.98 µM (inactive).
Consider `CN(NC(=O)/C(=C/c1ccc(Cl)cc1)NC(=O)c1ccccc1)c1cn[nH]c(=O)c1Cl`, for which the GI50 in the experiment with NCI-H460 was > 100 µM (inactive); in the experiment with MDA-MB-435 it was > 100 µM (inactive); with OVCAR-8 it was 46.9 µM (inactive); with SW-620, > 100 µM (inactive); in the experiment on SF-268 it was > 100 µM (inactive); in the experiment on RPMI-8226, 17.4 µM (inactive). Moreover, the GI50 is > 100 µM (inactive) in the experiment on NCI-H23; 55.1 µM (inactive) in the experiment on KM12; 73.5 µM (inactive) in the experiment on SK-MEL-5; > 100 µM (inactive) in the experiment with K562; 12.7 µM (inactive) in the experiment with HL-60; > 100 µM (inactive) in the experiment with OVCAR-4. Also, the GI50 with EKVX is 68.5 µM (inactive); with DU-145, > 100 µM (inactive); with RXF 393, > 100 µM (inactive); with HCT-116, > 100 µM (inactive); in the experiment on CAKI-1, > 100 µM (inactive); with SK-MEL-28, > 100 µM (inactive). The GI50 with OVCAR-5 is > 100 µM (inactive); in the experiment with CCRF-CEM it was 30 µM (inactive).
